Measurements published in patent US20150157615A1, “COMPOSITIONS AND METHOD FOR THE STIMULATION OF THE FEMALE AND MALE SEXUAL RESPONSE” (MULTICHEM S.A.S. DI GABRIELE SEGALLA, priority 2013, published 2015).

How the values were obtained:
human skin = settings: application on human skin; IJSPT Vol. 6 No. 2, 2011; cited from earlier work
skin [1] = settings: in the concentrations provided by the present invention
male sexual response = test system: male sexual response
Description: (§1) The application is preferably carried out 4-5 minutes before intercourse, but can also be repeated during intercourse itself whenever required.

female sexual response = test system: female sexual response
Description: as §1

skin [2] = settings: Norwegian Food Safety Authority risk profile / Council of Europe monograph 2008; cited from earlier work
[3] = men, alone, at least 0.5% up to 5% by weight, topical
[4] = women, alone, at least 0.5% up to 5% by weight, topical

For CC1CCC(C(C)C)C(O)C1 (stereo not drawn) [menthol], the “flow of blood in the part treated topically” value (human skin) is given as “reduces the flow of blood”.
For CC1CCC(C(C)C)C(OC(=O)c2cccnc2)C1 (stereo not drawn) [menthyl nicotinate, 5-Methyl-2-(isopropyl) cyclohexyl nicotinate], the “rubefacient and itching effect” value (skin [1]) was “does not exhibit any unpleasant rubefacient and itching effect”, the “turgidity of the tissues / reddening or itching” value (male sexual response; in vivo) was “without however causing annoying reddening or itching” and the “flow of blood in the corpora cavernosa, turgidity and power of erection” value (male sexual response; [3]) was “A greater flow of blood”. The “retardant and reinvigorating effect” value (male sexual response; [3]) was “A retardant and at the same reinvigorating effect”, the sexual stimulation (male sexual response; [3]) was “more intense” and the “voluntary control of ejaculation” value (male sexual response; [3]) was “Greater ability”. For the same compound, the “turgidity of the tissues / reddening or itching” value (female sexual response; in vivo) was “without however causing annoying reddening or itching”, the “latency period (period of time between orgasms)” value (female sexual response; [4]) was “Decrease” and the number of orgasms (female sexual response; [4]) was “Multiple orgasms”. The “stimulation of the clitoris” value (female sexual response; [4]) was “Intense and prolonged stimulation”, the “time necessary for reaching orgasm” value (female sexual response; [4]) was “Decrease” and the times of foreplay (female sexual response; [4]) was “Decrease”. The “duration of perception of cool tingling in the zone of application” value (female sexual response; women, depends on individual and concentration of active ingredient) was “up to one hour and more”.
For COC(=O)c1cccnc1 [methyl nicotinate], the “concentration at which highly irritating to the skin in some cases” value (skin [2]) is given as 0.00137-0.003%.
